The results in this text go back to PMC9090738, “An anti-diabetic drug targets NEET (CISD) proteins through destabilization of their [2Fe-2S] clusters” (Communications Biology, 2022).

One data set addresses T1, NAF-1 (Homo sapiens, UniProt Q8N5K1).
T1 construct: gene CISD2; soluble cytosolic part, residues 57-135; pET-28a+, E. coli BL21-RIL, Ni-agarose and size exclusion; [2Fe-2S] holo form; homodimer
T1 sequence (Q8N5K1 57-135): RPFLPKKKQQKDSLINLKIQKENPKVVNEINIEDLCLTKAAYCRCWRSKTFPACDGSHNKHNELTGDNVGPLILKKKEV
The data set can be described thus: isothermal titration calorimetry, one-site model. In kind it is binding. A general note: ITC needs no label: the signal is the heat of the interaction.

The target in another data set is T2, mNT (mitoNEET) (Homo sapiens, UniProt Q9NZ45).
T2 construct: gene CISD1; soluble cytosolic part, residues 33-108; pET-28a+, E. coli BL21-RIL, Ni-agarose and size exclusion; [2Fe-2S] holo form; homodimer
T2 sequence (Q9NZ45 33-108): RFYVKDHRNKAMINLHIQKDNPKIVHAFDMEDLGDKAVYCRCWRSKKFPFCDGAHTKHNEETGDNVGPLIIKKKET
The data set is described as follows: isothermal titration calorimetry, one-site model. It is filed as binding.

Data set [1] concerns the molecule itself. The data set is described as follows: crystal structure; co-crystallised with the small molecule M1 (3.3 mM, 5% DMSO), sitting drop, 32% PEG-3000, 100 mM Tris-HCl pH 8.0, 100 mM NaCl, 20 °C; two molecules (mNT) or two dimers (NAF-1) in the asymmetric unit.

Take `O=C(Nc1scc(C2CCc3ccccc3C2)c1C(=O)O)c1ccccc1` (racemic) [M1]: the Kd on NAF-1 came out at 7.2 ± 0.99 µM; at mNT (mitoNEET), 5.93 ± 0.53 µM.

B1: mitoNEET soluble part (residue 33-108) (domain or fragment, human, UniProt Q9NZ45 33-108, looked up)
chain: T2 sequence (Q9NZ45 33-108)
notes: mitoNEET (mNT), human NEET protein, soluble part, residues 33-108; Each monomer carries a [2Fe-2S] cluster; Crystallised with the small molecule M1; also called mNT; source: Escherichia coli BL21-RIL, purified (Ni-agarose, size exclusion chromatography)
On to B1, for which the binding result in data set [1] is on record as “binds”.

B2: NAF-1 soluble part (residue 57-135) (domain or fragment, human, UniProt Q8N5K1 57-135, looked up)
chain: T1 sequence (Q8N5K1 57-135)
notes: NAF-1, human NEET protein encoded by CISD2, soluble part, residues 57-135; Each monomer carries a [2Fe-2S] cluster; Crystallised with the small molecule M1; source: Escherichia coli BL21-RIL, purified (Ni-agarose, size exclusion chromatography)
Take B2: the binding result in data set [1] is “binds”.

As a reminder, the Kd is the concentration at which binding is half-saturated.
